# Measurements from patent US9345904B2, “Photodynamic therapy using photosensitizing agent or 5-aminolevulinic acid” (SBI Pharmaceuticals Co., Ltd., priority 2011, dated 2016).
# How the values were obtained:
# MKN45 cells = experiment: Cell-killing effect of ALA-PDT by wavelength, MTT assay survival rate; assay type: cell-based
# Experimental: MKN45 cells (purchased from Riken Cell Bank) cultured in a 35-mm dish were cultured for 4 hours in the presence of 0.168 mg/mL ALA. Then, 5 mL of a hemoglobin solution was dispensed into a 60-mm dish, placed on the 35-mm dish in which the culture was performed in the presence of ALA, and irradiated with light. Light shielding by hemoglobin was provided to imitate the inside of a living body because hemoglobin is considered to be a leading cause of the inhibition of light invasion in photodynamic therapy. The culture was irradiated to 4.5 J/cm^2 (5 mW/cm^2, 15 min.) with light having a peak at 402 nm, 502 nm, 517 nm, 529 nm, or 636 nm. […]
# The survival rate of cells after light irradiation was measured using an MTT assay method. […] Thereafter, 200 μL thereof was dispensed into a 96-well plate and measured for absorbance at 570 nm using a plate reader (from Bio-Rad). The survival rate was measured from the absorbance of each sample and expressed relative to the absorbance after a medium without cultured cells were subjected to these procedures, set to 0%, and the absorbance after such cells cultured as control were subjected to these procedures, set to 100%. Optical power density with light shielding by hemoglobin was measured using Power Meter (from Scientex, Inc.); the results are shown in FIG. 3.
# HeLa cells = experiment: Cancer therapeutic effect of ALA-PDT by wavelength, hematoxylin-eosin staining of subcutaneous HeLa tumors; assay type: in vivo, SCID mice; details: for tumor tissue histology (effect of ALA-PDT): 750 mg/kg b.w. ALA tail vein, 100 J/cm^2, after 4 hours, tissue taken following day
# Experimental: 5×10^5 HeLa cells were subcutaneously injected into SCID mice of the mouse numbers 1 to 3. […] After maintaining the mice until the size of tumors reaches that described in Table 1, 750 mg/kg b.w. of ALA was injected into the tail vein of the mice of numbers 1 and 2. After 4 hours, the mouse of number 1 was irradiated with LED light having a peak at a wavelength of 517 nm and the mouse of number 2 was irradiated with LED light having a peak at a wavelength of 629 nm. The SCID mice irradiated with light listed above were each anesthetized on the following day; a portion containing HeLa cells was cut out, fixed in formaldehyde, subjected to dehydration treatment with ethanol and xylene, and then embedded in paraffin; and a small piece thinly sliced into a thickness of 5 μm was stained with hematoxylin-eosin to observe the tissue under a light microscope.
smiles,measurement,setting,value
"NCC(=O)CCC(=O)O [ALA, 5-aminolevulinic acid]","cell-killing effect of lights at 502 nm, 517 nm and 529 nm relative to light at 636 nm","MKN45 cells; with light shielding by hemoglobin, lower optical power densities at 502-529 nm",comparable cell-killing effects compared to light at 636 nm
same,cell-killing effect of ALA-PDT,"MKN45 cells; without light shielding by hemoglobin, 0.168 mg/mL ALA 4 hours, 4.5 J/cm^2, lights with peak at 402, 502, 517, 529 or 636 nm compared","stronger in the order of lights having a peak at 402 nm, 502 nm, 517 nm, 529 nm, or 636 nm"
same,"effect of ALA-PDT at 517 nm compared with 629 nm (cell density, amount of blebs)","HeLa cells; mouse number 1 (517 nm) versus mouse number 2 (629 nm), tumors about 4 mm in height",the effect of ALA-PDT was higher
same,tumor tissue histology (effect of ALA-PDT),"HeLa cells; mouse number 1, LED 517 nm","the condensation of the cytoplasm, the disappearance of the nucleus, and clearance between cells due to the generation of blebs were observed"
same,tumor tissue histology (effect of ALA-PDT),"HeLa cells; mouse number 2, LED 629 nm","the condensation of the cytoplasm, the disappearance of the nucleus, and clearance between cells due to the generation of blebs were observed"
